From patent publication US10973868B2, “Composition for topical use based on a carnosine-magnesium complex” (Outplay Inc., priority 2016, dated 2021)
Like-named read-outs stand apart in the source and are kept apart here.

What was measured:
[1] = test system: rat extensor digitorum longus muscle fibres; conditions: mechanically skinned fibres; cited from earlier work
mice = conditions: cited from earlier work
[2] = test system: children with autistic spectrum disorders; conditions: after 8 weeks, P<0.05; cited from earlier work
[3] = aqueous solution; cited from earlier work
[4] = test system: adults with chronic schizophrenia; test: L-carnosine adjunctive treatment in chronic schizophrenia, strategic target detection test; type: in vivo, human; conditions: 2 g/day adjunctive, 3 months, vs placebo
Description: Improved Cognition In Schizophrenia: Targeting glutamatergic dysfunction provides an exciting opportunity to improve cognitive impairment in schizophrenia. One treatment approach has targeted inadequate antioxidant defenses at glutamatergic synapses. […] We conducted a preliminary study to test the hypothesis that L-carnosine, an antioxidant and anti-glycation agent which is co-localized and released with glutamate would improve executive dysfunction, a cognitive domain associated with glutamate. Seventy-five symptomatically stable adults with chronic schizophrenia were randomly assigned to L-carnosine as adjunctive treatment (2 g/day) or a matched placebo in a double-blind manner for 3 months. […] The recommended dosage is 4-6 ml of the exemplary composition of the topical composition illustrated above four times a day applied to all four limbs.

[5] = test system: muscle fibres of Rana Temporaria; conditions: 15 mM of carnosine; cited from earlier work
horse fibre types = conditions: cited from earlier work

Question: What does the source list for NCCC(=O)N[C@@H](Cc1c[nH]cn1)C(=O)O [carnosine, β-alanyl-L-histidine]?
Answer: Ca^2+ release from the sarcoplasmic reticulum [1]: did not affect; Ca^2+ sensitivity of the contractile components [1]: increase; amount of brain tissue involved in experimentally-produced strokes (mice): significantly reduced; Gilliam Autism Rating Scale (total score and Behavior, Socialization, Communication subscales) [2]: statistically significant improvements; Receptive One-Word Picture Vocabulary test [2]: statistically significant improvements; pK of the carboxylic function [3]: 2.6; perseverative errors on the strategic target detection test [4]: fewer perseverative errors; strategic efficiency on the strategic target detection test [4]: significantly improved; Ca^2+ sensitivity [5]: significant increase; contribution to buffering (horse fibre types; type I fibres): about 20%; contribution to buffering (horse fibre types; type IIb fibres): up to 46%
